Measured values published in patent US6525001B1, “Substituted pyrimidine and pyridine herbicides” (Mid-American Commercialization Corporation, priority 1997, dated 2003).

Experiments:
Type in all cases: in vivo
[1] = system: giant foxtail (Setaria faberii); assay: Test B pre-/postemergence; set-up: key: 0 is no effect; 10 is complete control
In short: (§1)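 Response scores run from 0, meaning no effect, to 10, meaning complete control, assigned by eye relative to controls twelve to sixteen days after spraying. Treatment was both preemergence on planted seed and postemergence on plants at the 1- to 4-leaf stage.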

[2] = system: bedstraw (Galium aparine); assay: Test B pre-/postemergence; set-up: key: 0 is no effect; 10 is complete control; conditions: for Bedstraw plant response rating: Preemergence
In short: as §1

[3] = system: momingglory (Ipomoea hederacea); assay: Test B pre-/postemergence; set-up: key: 0 is no effect; 10 is complete control
In short: as §1

wild oat (Avena fatua) = assay: Test B pre-/postemergence; set-up: key: 0 is no effect; 10 is complete control
In short: as §1

[4] = system: crabgrass (Digitaria sanguinalis); assay: Test B pre-/postemergence; set-up: key: 0 is no effect; 10 is complete control; conditions: for Crabgrass plant response rating: Preemergence
In short: as §1

[5] = system: blackgrass (Alopecurus myosuroides); assay: Test B pre-/postemergence; set-up: key: 0 is no effect; 10 is complete control; conditions: for Blackgrass plant response rating: Preemergence
In short: as §1

[6] = system: purple nutsedge (Cyperus rotundus); assay: Test B pre-/postemergence; set-up: key: 0 is no effect; 10 is complete control
In short: as §1

soybean (Glycine max) = assay: Test B pre-/postemergence; set-up: key: 0 is no effect; 10 is complete control
In short: as §1

rape (Brassica napus) = assay: Test B pre-/postemergence; set-up: key: 0 is no effect; 10 is complete control
In short: as §1

[7] = system: sugar beet (Beta vulgaris); assay: Test B pre-/postemergence; set-up: key: 0 is no effect; 10 is complete control
In short: as §1

[8] = system: pigweed (Amaranthus retroflexus); assay: Test B pre-/postemergence; set-up: key: 0 is no effect; 10 is complete control
In short: as §1

corn (Zea mays) = assay: Test B pre-/postemergence; set-up: key: 0 is no effect; 10 is complete control; conditions: for Corn plant response rating: Preemergence
In short: as §1

[9] = system: velvetleaf (Abutilon theophrasti); assay: Test B pre-/postemergence; set-up: key: 0 is no effect; 10 is complete control
In short: as §1

[10] = system: broadleaf signalgrass (Brachiaria decumbens); assay: Test B pre-/postemergence; set-up: key: 0 is no effect; 10 is complete control; conditions: for B. signalgrass plant response rating: Preemergence
In short: as §1

[11] = system: cocklebur (Xanthium strumarium); assay: Test B pre-/postemergence; set-up: key: 0 is no effect; 10 is complete control; conditions: for Cocklebur plant response rating: Preemergence
In short: as §1

[12] = system: wheat (Triticum aestivum); assay: Test B pre-/postemergence; set-up: key: 0 is no effect; 10 is complete control
In short: as §1

rice (Oryza sativa) = assay: Test B flood test
In short: (§2)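 Each value is a visual injury score relative to controls, with 10 meaning complete control and 0 no effect. Evaluation took place twelve to sixteen days after the 2-leaf-stage plants were treated and kept in the greenhouse.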

[13] = system: bamyardgrass (Echinochloa crus-galli); assay: Test B flood test
In short: as §2

[14] = system: duck salad (Heteranthera limosa); assay: Test B flood test
In short: as §2

[15] = system: smallflower flatsedge (Cyperus difformis); assay: Test B flood test
In short: as §2

[16] = Rate 250 g/ha, Postemergence (so in the source)
[17] = Rate 62 g/ha, Postemergence (flood test)
[18] = Rate 125 g/ha, Postemergence section (flood test species)
[19] = Rate 250 g/ha, Postemergence (flood test species)
[20] = Rate 500 g/ha, Postemergence (flood test species)
[21] = Rate 125 g/ha, Postemergence, flood test

Cc1cnc(-c2ccc(C(F)(F)F)cc2)nc1Cc1cccc(C#N)c1 [Compound 32]
2: Giant foxtail plant response rating ([1]; Rate 125 g/ha, Preemergence) | Plant response rating, Giant foxtail ([1]; Rate 250 g/ha, Postemergence) | Morningglory plant response rating ([3]; Rate 125 g/ha, Preemergence) | Wild oats plant response rating (wild oat (Avena fatua); Rate 62 g/ha, Preemergence) | Plant response rating, Crabgrass ([4]; Rate 125 g/ha, Postemergence) | Plant response rating, Crabgrass ([4]; Rate 250 g/ha, Postemergence) | Plant response rating, Blackgrass ([5]; Rate 125 g/ha, Postemergence) | Blackgrass plant response rating ([5]; Rate 125 g/ha) | Rape plant response rating (rape (Brassica napus); Rate 62 g/ha, Preemergence) | B. signalgrass plant response rating ([10]; Rate 62 g/ha) | Plant response rating, B. signalgrass ([10]; Rate 125 g/ha, Postemergence) | Plant response rating, B. signalgrass ([10]; Rate 250 g/ha, Postemergence) | Wheat plant response rating ([12]; Rate 125 g/ha, Postemergence) | Plant response rating, Wheat ([12]; Rate 250 g/ha, Postemergence) | Plant response rating, Rice (rice (Oryza sativa); [19]) | Plant response rating, Rice (rice (Oryza sativa); [20]) | Plant response rating, Barnyardgrass [13, 17] | Plant response rating, Ducksalad [14, 17] | Plant response rating, S. Flatsedge [15, 17]
7: Plant response rating, Morningglory ([3]; Rate 62 g/ha, Postemergence) | Plant response rating, B. signalgrass ([10]; Rate 250 g/ha, Postemergence as printed in head r139 (second section for compounds 26-50)) | Plant response rating, S. Flatsedge [15, 20]
0: Plant response rating, Nutsedge ([6]; Rate 62 g/ha, Postemergence) | Nutsedge plant response rating ([6]; Rate 62 g/ha, Preemergence) | Nutsedge plant response rating ([6]; Rate 125 g/ha, Postemergence) | Nutsedge plant response rating ([6]; Rate 125 g/ha, Preemergence) | Plant response rating, Nutsedge [6, 16] | Soybean plant response rating (soybean (Glycine max); Rate 62 g/ha, Preemergence) | Plant response rating, Soybean (soybean (Glycine max); Rate 125 g/ha, Preemergence) | Corn plant response rating (corn (Zea mays); Rate 62 g/ha) | Corn plant response rating (corn (Zea mays); Rate 125 g/ha) | Plant response rating, Corn (corn (Zea mays); [16]) | Cocklebur plant response rating ([11]; Rate 62 g/ha) | Cocklebur plant response rating ([11]; Rate 125 g/ha) | Plant response rating, Cocklebur [11, 16] | Wheat plant response rating ([12]; Rate 62 g/ha, Preemergence) | Plant response rating, Wheat ([12]; Rate 125 g/ha, Preemergence) | Plant response rating, Wheat [12, 16]
8: Bedstraw plant response rating ([2]; Rate 125 g/ha) | Morningglory plant response rating ([3]; Rate 125 g/ha, Postemergence) | Plant response rating, Rape (rape (Brassica napus); Rate 62 g/ha, Postemergence) | Rape plant response rating (rape (Brassica napus); Rate 125 g/ha, Postemergence) | Plant response rating, Rape (rape (Brassica napus); Rate 250 g/ha, Postemergence) | Sugarbeets plant response rating ([7]; Rate 62 g/ha, Preemergence) | Redroot pigweed plant response rating ([8]; Rate 62 g/ha, Preemergence) | Velvetleaf plant response rating ([9]; Rate 125 g/ha, Postemergence) | Plant response rating, Cocklebur ([11]; Rate 62 g/ha, Postemergence) | Plant response rating, Cocklebur ([11]; Rate 125 g/ha, Postemergence)
5: Plant response rating, Giant foxtail [1, 16] | Plant response rating, Blackgrass ([5]; Rate 250 g/ha, Postemergence) | Soybean plant response rating (soybean (Glycine max); Rate 125 g/ha, Postemergence) | S. Flatsedge plant response rating [15, 18]
3: Bedstraw plant response rating ([2]; Rate 62 g/ha) | Plant response rating, Morningglory [3, 16] | Wild oats plant response rating (wild oat (Avena fatua); Rate 125 g/ha, Postemergence) | Plant response rating, Wild oats (wild oat (Avena fatua); Rate 125 g/ha, Preemergence) | Plant response rating, Wild oats (wild oat (Avena fatua); Rate 250 g/ha, Postemergence) | Plant response rating, Crabgrass [4, 16] | Plant response rating, Barnyardgrass [13, 21] | Plant response rating, Barnyardgrass [13, 19] | Plant response rating, Ducksalad [14, 21]
9: Plant response rating, Sugarbeets ([7]; Rate 62 g/ha, Postemergence) | Redroot pigweed plant response rating ([8]; Rate 125 g/ha, Postemergence) | Plant response rating, Redroot pigweed ([8]; Rate 250 g/ha, Postemergence) | Plant response rating, Velvetleaf ([9]; Rate 125 g/ha, Preemergence) | Plant response rating, Velvetleaf ([9]; Rate 250 g/ha, Postemergence) | Plant response rating, Cocklebur ([11]; Rate 250 g/ha, Postemergence)
10: Plant response rating, Bedstraw ([2]; Rate 250 g/ha, Postemergence) | Plant response rating, Bedstraw [2, 16] | Plant response rating, Morningglory ([3]; Rate 250 g/ha, Postemergence) | Rape plant response rating (rape (Brassica napus); Rate 125 g/ha, Preemergence) | Plant response rating, Rape (rape (Brassica napus); [16]) | Sugarbeets plant response rating ([7]; Rate 125 g/ha, Postemergence) | Plant response rating, Sugarbeets ([7]; Rate 125 g/ha, Preemergence) | Plant response rating, Sugarbeets ([7]; Rate 250 g/ha, Postemergence) | Plant response rating, Sugarbeets [7, 16] | Redroot pigweed plant response rating ([8]; Rate 125 g/ha, Preemergence) | Plant response rating, Redroot pigweed [8, 16] | Plant response rating, Velvetleaf [9, 16]
6: Plant response rating, Bedstraw ([2]; Rate 62 g/ha, Postemergence) | Plant response rating, Bedstraw ([2]; Rate 125 g/ha, Postemergence) | Plant response rating, Soybean (soybean (Glycine max); Rate 250 g/ha, Postemergence) | Plant response rating, Redroot pigweed ([8]; Rate 62 g/ha, Postemergence) | Velvetleaf plant response rating ([9]; Rate 62 g/ha, Preemergence) | B. signalgrass plant response rating ([10]; Rate 125 g/ha) | Plant response rating, Ducksalad [14, 20] | Plant response rating, S. Flatsedge [15, 19]
4: Plant response rating, Wild oats (wild oat (Avena fatua); [16]) | Plant response rating, Blackgrass [5, 16] | Plant response rating, Soybean (soybean (Glycine max); Rate 62 g/ha, Postemergence) | Plant response rating, Velvetleaf ([9]; Rate 62 g/ha, Postemergence) | Plant response rating, Barnyardgrass [13, 20] | Plant response rating, Ducksalad [14, 19]
1: Plant response rating, Giant foxtail ([1]; Rate 62 g/ha, Postemergence) | Giant foxtail plant response rating ([1]; Rate 62 g/ha, Preemergence) | Giant foxtail plant response rating ([1]; Rate 125 g/ha, Postemergence) | Morningglory plant response rating ([3]; Rate 62 g/ha, Preemergence) | Wild oats plant response rating (wild oat (Avena fatua); Rate 62 g/ha, Postemergence) | Plant response rating, Crabgrass ([4]; Rate 62 g/ha, Postemergence) | Crabgrass plant response rating ([4]; Rate 62 g/ha) | Crabgrass plant response rating ([4]; Rate 125 g/ha) | Plant response rating, Blackgrass ([5]; Rate 62 g/ha, Postemergence) | Blackgrass plant response rating ([5]; Rate 62 g/ha) | Plant response rating, Nutsedge ([6]; Rate 250 g/ha, Postemergence) | Plant response rating, Soybean (soybean (Glycine max); [16]) | Plant response rating, Corn (corn (Zea mays); Rate 62 g/ha, Postemergence) | Plant response rating, Corn (corn (Zea mays); Rate 125 g/ha, Postemergence) | Plant response rating, Corn (corn (Zea mays); Rate 250 g/ha, Postemergence) | Plant response rating, B. signalgrass ([10]; Rate 62 g/ha, Postemergence) | Wheat plant response rating ([12]; Rate 62 g/ha, Postemergence) | Plant response rating, Rice (rice (Oryza sativa); [17]) | Rice plant response rating (rice (Oryza sativa); [18])
